For 25 compounds, EC50 results are on record in US11046680B1, “Heteroaryl-substituted triazoles as APJ receptor agonists” (priority 2016, dated 2021).

The target of this assay is human APJ receptor (Homo sapiens (Human), UniProt P35414). The assay is described as follows: biochemical. Format: biochemical. Conditions: [35S]GTPγS binding, CHO membranes expressing human APJ receptor; read-out: Activity hAPJ SPA EC50 IP. The procedure, abridged:
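GTPγS binding on membranes from CHO cells stably expressing FLAG-tagged human APJ, with optimized GDP, MgCl2 and NaCl; incubated 90 min at RT before imaging read-out.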
On the technique in general: GTPγS is a poorly hydrolysed GTP analogue; its binding reports G protein activation.

human APJ receptor, sequence (P35414 whole entry): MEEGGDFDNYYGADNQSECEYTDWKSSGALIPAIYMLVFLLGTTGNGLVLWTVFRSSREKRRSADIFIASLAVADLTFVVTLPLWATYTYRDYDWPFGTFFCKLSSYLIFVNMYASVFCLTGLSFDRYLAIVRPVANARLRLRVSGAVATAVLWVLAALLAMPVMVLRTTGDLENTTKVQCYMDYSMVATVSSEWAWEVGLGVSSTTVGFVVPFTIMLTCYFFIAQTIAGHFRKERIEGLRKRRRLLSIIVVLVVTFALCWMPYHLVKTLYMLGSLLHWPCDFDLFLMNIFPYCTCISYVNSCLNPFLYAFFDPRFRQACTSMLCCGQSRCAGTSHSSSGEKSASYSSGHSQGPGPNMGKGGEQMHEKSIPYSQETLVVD

For `COc1cccc(OC)c1-n1c(NS(=O)(=O)[C@@H](C)[C@H](C)c2ncc(C)cn2)nnc1-c1cnn2c1CCC2` [Example 487.0, (2S,3R)-N-(5-(5,6-dihydro-4H-pyrrolo[1,2-b]pyrazol-3-yl)-4-(2,6-dimethoxyphenyl)-4H-1,2,4-triazol-3-yl)-3-(5-methylpyrimidin-2-yl)butane-2-sulfonamide], the concentration for a half-maximal effect (EC50) was 0.62 nM.

For `COc1ccc(N(C)C)cc1-n1c(NS(=O)(=O)CCc2ccc(Cl)cc2)nnc1-c1cccs1` [Example 252.0, 2-(4-chlorophenyl)-N-(4-(5-(dimethylamino)-2-methoxyphenyl)-5-(2-thiophenyl)-4H-1,2,4-triazol-3-yl)ethanesulfonamide], the EC50 was 11 nM.

Consider `CCc1csc(-c2nnc(NS(=O)(=O)CCc3ccc(Cl)cc3)n2-c2c(OC)cccc2OC)n1` [Example 152.0, 2-(4-chlorophenyl)-N-(4-(2,6-dimethoxyphenyl)-5-(4-ethylthiazol-2-yl)-4H-1,2,4-triazol-3-yl)ethanesulfonamide], for which the EC50 is greater than 12500 nM.

Take `CCn1ccc(-c2nnc(NS(=O)(=O)[C@@H](C)[C@@](O)(c3ncc(C)cn3)C(F)(F)F)n2-c2c(OC)cccc2OC)n1` [Example 390.0, (2S,3R)-N-(4-(2,6-Dimethoxyphenyl)-5-(1-ethyl-1H-pyrazol-3-yl)-4H-1,2,4-triazol-3-yl)-4,4,4-trifluoro-3-hydroxy-3-(5-methylpyrimidin-2-yl)butane-2-sulfonamide and (2S,3S)-N-(4-(2,6-dimethoxyphenyl)-5-(1-ethyl-H-pyrazol-3-yl)-4H-1,2,4-triazol-3-yl)-4,4,4-trifluoro-3-hydroxy-3-(5-methylpyrimidin-2-yl)butane-2-sulfonamide]: the half-maximal effective concentration (EC50) stood at 73 nM.

Consider `COc1cccc(OC)c1-n1c(NS(=O)(=O)[C@@H](C)[C@H](OC)c2ncc(Cl)cn2)nnc1-c1noc2ccccc12` [Example 83.0, (1R,2S)-N-(5-(benzo[d]isoxazol-3-yl)-4-(2,6-dimethoxyphenyl)-4H-1,2,4-triazol-3-yl)-1-(5-chloropyrimidin-2-yl)-1-methoxypropane-2-sulfonamide], for which the EC50 turned out to be 1.9 nM.

With `COc1cccc(OC)c1-n1c(NS(=O)(=O)[C@@H](C)[C@H](OC)c2ncc(C)cn2)nnc1-c1noc2ccc(Br)cc12` [Example 414.0], the EC50 is 210 nM.

As for `Cn1ccc(-c2nnc(NS(=O)(=O)[C@@H]3C[C@@H](O)CN(c4ncc(F)cn4)C3)n2-c2c(F)cccc2F)n1` (single isomer, unassigned) [Example 300.0, (3R,5R)-N-(4-(2,6-difluorophenyl)-5-(1-methyl-1H-pyrazol-3-yl)-4H-1,2,4-triazol-3-yl)-1-(5-fluoro-2-pyrimidinyl)-5-hydroxy-3-piperidinesulfonamide or (3S,5R)-N-(4-(2,6-difluorophenyl)-5-(1-methyl-1H-pyrazol-3-yl)-4H-1,2,4-triazol-3-yl)-1-(5-fluoro-2-pyrimidinyl)-5-hydroxy-3-piperidinesulfonamide], the 50% effective concentration (EC50) was determined as 55 nM.

Take `COc1cccc(OC)c1-n1c(NS(=O)(=O)[C@@H](C)[C@H](OC)c2ncc(Cl)cn2)nnc1-c1c[nH]c2ncccc12` [Example 419.0, (1R,2S)-1-(5-chloropyrimidin-2-yl)-N-(4-(2,6-dimethoxyphenyl)-5-(1H-pyrrolo[2,3-b]pyridin-3-yl)-4H-1,2,4-triazol-3-yl)-1-methoxypropane-2-sulfonamide]: the EC50 is 2.4 nM.

`COc1cccc(OC)c1-n1c(NS(=O)(=O)CCc2ccc(Cl)cc2)nnc1-c1nccs1` [Example 136.0, 2-(4-chlorophenyl)-N-(4-(2,6-dimethoxyphenyl)-5-(thiazol-2-yl)-4H-1,2,4-triazol-3-yl)ethanesulfonamide]: the concentration giving a half-maximal response (EC50) is 35 nM.

With `COc1cccc(OC)c1-n1c(NS(=O)(=O)[C@@H](C)[C@H](C)c2ncc(C#N)cn2)nnc1-c1ccn(C(F)F)n1` [Example 224.0, (2S,3R)-3-(5-cyano-2-pyrimidinyl)-N-(5-(1-(difluoromethyl)-1H-pyrazol-3-yl)-4-(2,6-dimethoxyphenyl)-4H-1,2,4-triazol-3-yl)-2-butanesulfonamide], the half-maximal effective concentration (EC50) was 0.41 nM.

`CNC(=O)n1ccc(-c2nnc(NS(=O)(=O)[C@@H](C)Cc3ncc(F)cn3)n2-c2c(OC)cccc2OC)n1` (single isomer, unassigned) [Example 73.0, (R)-3-(4-(2,6-dimethoxyphenyl)-5-(2-(5-fluoropyrimidin-2-yl)-1-methylethylsulfonamido)-4H-1,2,4-triazol-3-yl)-N-methyl-1H-pyrazole-1-carboxamide or (S)-3-(4-(2,6-dimethoxyphenyl)-5-(2-(5-fluoropyrimidin-2-yl)-1-methylethylsulfonamido)-4H-1,2,4-triazol-3-yl)-N-methyl-1H-pyrazole-1-carboxamide]: the 50% effective concentration (EC50) worked out at 29 nM.

As for `COc1ncnc(OC)c1-n1c(NS(=O)(=O)[C@@H](C)[C@H](OC)c2ccc(Cl)cn2)nnc1-c1ccn(C)n1` (single isomer, unassigned) [Example 288.0], the 50% effective concentration (EC50) is 1.3 nM.

As for `COc1cccc(OC)c1-n1c(NS(=O)(=O)[C@@H](C)[C@@H](OC(C)C)c2cnc(C)cn2)nnc1-c1cc(C)on1` [Example 497.0, (1S,2S)-N-(4-(2,6-dimethoxyphenyl)-5-(5-methylisoxazol-3-yl)-4H-1,2,4-triazol-3-yl)-1-isopropoxy-1-(5-methylpyrazin-2-yl)propane-2-sulfonamide], the EC50 came to 15 nM.

Regarding `COc1cccc(OC)c1-n1c(NS(=O)(=O)CCc2ncc(C)cn2)nnc1-c1nc(C)cs1` [Example 10.0, N-(4-(2,6-dimethoxyphenyl)-5-(4-methyl-1,3-thiazol-2-yl)-4H-1,2,4-triazol-3-yl)-2-(5-methyl-2-pyrimidinyl)ethanesulfonamide], the EC50 is 8.4 nM.

On to `COc1cccc(OC)c1-n1c(NS(=O)(=O)[C@@H](C)[C@H](OC)c2ncc(C)cn2)nnc1-c1ncc(C)s1` [Example 331.0, (1R,2S)-N-(4-(2,6-Dimethoxyphenyl)-5-(5-methyl-1,3-thiazol-2-yl)-4H-1,2,4-triazol-3-yl)-1-methoxy-1-(5-methyl-2-pyrimidinyl)-2-propanesulfonamide], for which the EC50 was found to be 0.98 nM.

With `COc1cccc(OC)c1-n1c(NS(=O)(=O)CCc2ccc(Cl)cc2)nnc1-c1cc(C)on1` [Example 145.0, 2-(4-chlorophenyl)-N-(4-(2,6-dimethoxyphenyl)-5-(5-methylisoxazol-3-yl)-4H-1,2,4-triazol-3-yl)ethanesulfonamide], the EC50 is 71 nM.

For `COCC[C@@H]([C@H](C)c1ncc(F)cn1)S(=O)(=O)Nc1nnc(-c2nc(C)cs2)n1-c1c(OC)cccc1OC` (single isomer, unassigned) [Example 21.0], the EC50 stood at 90 nM.

For `COc1cccc(OC)c1-n1c(NS(=O)(=O)[C@@H](C)[C@H](O)c2cnc(C)cn2)nnc1-c1cc(C)[nH]n1` [Example 347.0, (1R,2S)-N-(4-(2,6-Dimethoxyphenyl)-5-(5-methyl-1H-pyrazol-3-yl)-4H-1,2,4-triazol-3-yl)-1-hydroxy-1-(5-methyl-2-pyrazinyl)-2-propanesulfonamide], the concentration for a half-maximal effect (EC50) is 3.8 nM.

For `COc1cccc(OC)c1-n1c(NS(=O)(=O)CCc2ccc(Cl)cc2)nnc1-c1nc(C)cs1` [Example 142.0, 2-(4-chlorophenyl)-N-(4-(2,6-dimethoxyphenyl)-5-(4-methylthiazol-2-yl)-4H-1,2,4-triazol-3-yl)ethanesulfonamide], the concentration giving a half-maximal response (EC50) is 17 nM.

Consider `COc1ccc(S(C)(=O)=O)cc1-n1c(NS(=O)(=O)CCc2ccc(Cl)cc2)nnc1-c1cccs1` [Example 312.0, 2-(4-Chlorophenyl)-N-(4-(2-methoxy-5-(methylsulfonyl)phenyl)-5-(thiophen-2-yl)-4H-1,2,4-triazol-3-yl)ethanesulfonamide], for which the 50% effective concentration (EC50) worked out at 76 nM.

Turning to `COc1cccc(OC)c1-n1c(NS(=O)(=O)[C@H](C)Cc2ncc(F)cn2)nnc1-c1conc1C` (single isomer, unassigned) [Example 65.0, (R)-N-(4-(2,6-dimethoxyphenyl)-5-(3-methylisoxazol-4-yl)-4H-1,2,4-triazol-3-yl)-1-(5-fluoropyrimidin-2-yl)propane-2-sulfonamide or (S)-N-(4-(2,6-dimethoxyphenyl)-5-(3-methylisoxazol-4-yl)-4H-1,2,4-triazol-3-yl)-1-(5-fluoropyrimidin-2-yl)propane-2-sulfonamide], the concentration for a half-maximal effect (EC50) is 76 nM.

As to `COc1cncc(-c2nnc(NS(=O)(=O)[C@@H](C)[C@H](OC)c3ncc(C)cn3)n2-c2c(OC)cccc2OC)n1` [Example 343.0, (1R,2S)-N-(4-(2,6-dimethoxyphenyl)-5-(6-methoxy-2-pyrazinyl)-4H-1,2,4-triazol-3-yl)-1-methoxy-1-(5-methyl-2-pyrimidinyl)-2-propanesulfonamide], the EC50 worked out at 2.6 nM.

Consider `COCC1(n2c(NS(=O)(=O)[C@@H](C)[C@H](OC)c3ncc(Cl)cn3)nnc2-c2nn(C)c3c2CCCC3)CCC1` [Example 518.0], for which the 50% effective concentration (EC50) is 92 nM.

As for `COc1cccc(OC)c1-n1c(NS(=O)(=O)[C@H](C)Cc2ncc(F)cn2)nnc1-c1ccn(C)c1` (single isomer, unassigned) [Example 34.0, (R)-N-(4-(2,6-dimethoxyphenyl)-5-(1-methyl-1H-pyrrol-3-yl)-4H-1,2,4-triazol-3-yl)-1-(5-fluoropyrimidin-2-yl)propane-2-sulfonamide or (S)-N-(4-(2,6-dimethoxyphenyl)-5-(1-methyl-1H-pyrrol-3-yl)-4H-1,2,4-triazol-3-yl)-1-(5-fluoropyrimidin-2-yl)propane-2-sulfonamide], the EC50 turned out to be 4.5 nM.

In the case of `CCO[C@H](c1ncc(F)cn1)[C@H](C)S(=O)(=O)Nc1nnc(-c2ccn(C)n2)n1-c1c(OC)cccc1OC` [Example 135.0, (1R,2S)-N-(4-(2,6-Dimethoxyphenyl)-5-(1-methyl-1H-pyrazol-3-yl)-4H-1,2,4-triazol-3-yl)-1-ethoxy-1-(5-fluoro-2-pyrimidinyl)-2-propanesulfonamide], the EC50 came to 0.88 nM.

For orientation: EC50 means the concentration that produces a half-maximal response.
